Assay results published in ChEMBL document CHEMBL1153195 (Bioorg Med Chem Lett, 2010).

How the values were obtained:
Substance-P receptor = Substance-P receptor (Homo sapiens, UniProt P25103); assay: Displacement of [3H]substance P from human NK1 receptor expressed in CHO cells; format: cell-based
Gerbillinae = assay: Anxiolytic-like activity in po or sc dosed gerbils assessed as inhibition of GR-73632-induced foot tapping administered 1 hr before GR-73632 challenge measured; format: functional; conditions: for ED50: read-out: ID50 (the source's name)
[1] = Cmax in rat at 1 mg/kg, po; format: ADME, organism-based; parameters: dose 1 mg/kg, route oral; conditions: in vivo
[2] = AUC (0 to 8 hrs) in rat at 1 mg/kg, po; format: ADME, organism-based; parameters: time < 8 hr, dose 1 mg/kg, route oral; conditions: plasma
[3] = Ratio of drug level in brain to plasma in rat at 1 mg/kg, po after 5 mins; format: ADME, organism-based; parameters: dose 1 mg/kg, route oral

Chain of Substance-P receptor (P25103 whole entry): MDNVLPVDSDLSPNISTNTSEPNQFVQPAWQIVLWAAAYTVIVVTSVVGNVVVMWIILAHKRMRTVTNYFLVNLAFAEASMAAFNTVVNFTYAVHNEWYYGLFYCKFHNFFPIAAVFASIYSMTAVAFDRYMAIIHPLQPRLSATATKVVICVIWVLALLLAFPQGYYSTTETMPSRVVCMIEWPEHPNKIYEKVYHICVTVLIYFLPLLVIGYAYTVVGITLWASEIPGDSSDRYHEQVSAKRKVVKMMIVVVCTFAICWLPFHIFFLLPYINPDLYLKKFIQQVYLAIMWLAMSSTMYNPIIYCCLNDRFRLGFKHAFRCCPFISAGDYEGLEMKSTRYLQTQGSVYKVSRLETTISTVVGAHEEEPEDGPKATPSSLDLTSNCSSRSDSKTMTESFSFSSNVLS

Compound | Ki (Substance-P receptor) | other results
Cc1cc(F)ccc1C1CNCC2CN(Cc3cc(C(F)(F)F)cc(C(F)(F)F)c3)C(=O)N21 (stereo not given) | 50.1 nM | 
Cc1cc(F)ccc1[C@H]1CNCCN1C(=O)N1CCCC1c1cc(C(F)(F)F)cc(C(F)(F)F)c1 (stereo in doubt; 2a) | 63.1 nM | 
Cc1cc(F)ccc1[C@H]1CNCCN1C(=O)N1CCNCC1c1cc(C(F)(F)F)cc(C(F)(F)F)c1 (stereo in doubt; 5a) | 100 nM | 
Cc1cc(F)ccc1[C@H]1CNCCN1C(=O)N1CCNCC1c1cc(C(F)(F)F)cc(C(F)(F)F)c1 (stereo in doubt; 5b) [listing 2 of 2 here] |  | Activity (Gerbillinae): Dose-dependent effect
Cc1cc(F)ccc1[C@H]1CNCCN1C(=O)N(C)[C@H](C)c1cc(C(F)(F)F)cc(C(F)(F)F)c1 [VESTIPITANT] |  | ED50 (Gerbillinae): 0.014 mg/kg

The remaining compounds from weak to strong by Ki (Substance-P receptor), led by results:

Ki (Substance-P receptor) | Compound | other results
31.6 nM | Cc1cc(F)ccc1[C@H]1CNCCN1C(=O)N1CCCCC1c1cc(C(F)(F)F)cc(C(F)(F)F)c1 (stereo in doubt; 4a) | 
20 nM | Cc1cc(F)ccc1[C@H]1CNCCN1C(=O)N1CCC=CC1c1cc(C(F)(F)F)cc(C(F)(F)F)c1 (stereo in doubt; 3a) | 
6.31 nM | Cc1cc(F)ccc1[C@H]1CNCCN1C(=O)N1CCCC1c1cc(C(F)(F)F)cc(C(F)(F)F)c1 (stereo in doubt; 2b) | 
1.26 nM | Cc1cc(F)ccc1[C@H]1CNCCN1C(=O)N1CCCCC1c1cc(C(F)(F)F)cc(C(F)(F)F)c1 (stereo in doubt; 4b) | 
0.794 nM | Cc1cc(F)ccc1[C@H]1CNCCN1C(=O)N1CCNCC1c1cc(C(F)(F)F)cc(C(F)(F)F)c1 (stereo in doubt; 5b) [listing 1 of 2 here] | ED50 (Gerbillinae): 0.4 mg/kg; Kp at 5 min [3]: 0.9; Cmax [1]: 32 ng/mL; AUC(0-t) at 8 h [2]: 145 ng·h/mL
0.501 nM | Cc1cc(F)ccc1[C@H]1CNCCN1C(=O)N(C)C1(c2cc(C(F)(F)F)cc(C(F)(F)F)c2)CC1 | Activity (Gerbillinae): Dose-dependent effect; ED50 (Gerbillinae): 0.2 mg/kg; Cmax [1]: 29 ng/mL; AUC(0-t) at 8 h [2]: 108 ng·h/mL
0.501 nM | Cc1cc(F)ccc1[C@H]1CNCCN1C(=O)N1CCC=CC1c1cc(C(F)(F)F)cc(C(F)(F)F)c1 (stereo in doubt; 3b) | 
